Legend:
[1] = tested on: AR42J (AR4-2J) rat pancreatic tumor cell line; experiment: In vivo AR42J tumor growth in nude mice; conditions: after 4 weeks; s.c. AR42J tumors in female nude mice; Compound B or rapamycin 5 mg/kg p.o., octreotide slow release 30 mg/kg s.c. single inj.; control 4020 (3 week value)
Method: Cultures are propagated in DMEM supplemented with 10% fetal calf serum (FCS) at 5% CO2. Cells are grown in the absence of antibiotics or antifungal agents. Female nude mice (nu/nu Balbc-A from Iffa Credo, Lyon, France) weighing 19-22 g, are kept in groups of 5 animals in macrolon cages (type III, 16×22×11 cm). The cages are placed in ventilated cabinets (Iffa Credo) that are maintained at 24±1° C. The animals have free access to drinking water and a pathogen-free rodent diet (Diet A, Kliba, Basel, Switzerland). To initiate tumors from cultured cells, AR42J cells are trypsinized and 10×10^6 tumor cells (in 0.2 ml) are injected subcutaneously (s.c.) into both flanks of nude mice. […] Control animals receive placebo. Animals are treated as indicated below for 3 weeks with single agents or the drug combination. The somatostatin analogue is given as a single injection of a slow release form at 30 mg/kg s.c. The size of the tumors is determined with a caliper. To calculate the tumor volume in ml, the equation “volume (ellipsoid)=length×depth×height×0.52” was used.
After 4 weeks, the following tumor sizes were determined.

[2] = tested on: AR42J cells; experiment: In vitro AR42J cell growth assay (SRB staining, delta OD); format: cell-based, rat; design: Cell Growth (ΔOD): unit not given here; conditions: octreotide 1.2 nM, Compound B 12.0 nM, combination 1.2 + 12.0 nM; for Cell Growth (% of CONTROL) Observed: control = 100

Compound | Tumor Volume [1] [mm^3] | Cell Growth (% of CONTROL) Observed [2] [%] | Cell Growth (ΔOD) ([2]; DMEM+2.5% FCS, control 664 ± 9)
CO[C@H]1C[C@@H]2CC[C@@H](C)[C@@](O)(O2)C(=O)C(=O)N2CCCC[C@H]2C(=O)O[C@H]([C@H](C)C[C@@H]2CC[C@@H](OCCO)[C@H](OC)C2)CC(=O)[C@H](C)/C=C(\C)[C@@H](O)[C@@H](OC)C(=O)[C@H](C)C[C@H](C)/C=C/C=C/C=C/1C [Compound B, 40-O-(2-hydroxy)ethyl-rapamycin] | 3685 | 63.3 | –
Rapamycin | 2748 | – | –
octreotide | – | 59.8 | 397 ± 16
